# In patent US11278584B2, “Pharmaceutical composition for preventing and treating senile dementia and preparation method thereof” (priority 2014, dated 2022):
# Counter-ions that a name gives are not always drawn.
# How the values were obtained:
# [1] = test system: Scop induced dysmnesia model mice; experiment: Morris water maze test, scopolamine-induced dysmnesia model mice; format: in vivo; details: KM mice, intragastric 2 weeks, compositions 31.66 g raw medicinal materials/kg (J: high dosage), Donepezil 1.67 mg/kg
# Text: Animals: KM mice, available from Da Shuo Biological Technology Co. LTD, Chengdu City, China, were used.
# Before experiments, mice of experimental group were fed by intragastric administration of a pharmaceutical composition for 2 weeks, while the normal control group and the model group were fed the same volume of distilled water. On day 9, mice were trained in the pool of Morris, 2 times per day. On day 14, mice were subjected to Morris water Maze testing.
# On experiment day, mice were fed by intragastric administration. 30 Minutes later, they were administered with Scop in a dosage of 3 mg·kg^−1 via intraperitoneal injection. 20 Minutes later, the mice were subjected to Morris water Maze testing. The normal control group was intraperitoneally injected with the same volume of saline. The swimming performance of mice were tracked and recorded by a camera. The travel path, time spent and speed of movement of mice in 300 s were recorded by a computer automatically. The maximum latency was set as 300 s. The recording stopped after 300 s. The escape latency and swimming distance for looking for the platform were recorded.
# [2] = test system: Scop induced dysmnesia model rats; experiment: Morris water maze test, scopolamine-induced dysmnesia model rats; format: in vivo, SD Male rats; details: intragastric 2 weeks, compositions 11.08 g raw medicinal materials/kg, Donepezil 1.17 mg/kg
# Protocol: (§1) Animals: SD Male rats, available from Da Shuo Biological Technology Co. LTD, Chengdu City, China, were used. 2. Testing Method
# (§2) Rats were randomly divided into Normal control group, Scop Model group, Positive control group (Donepezil, 1.17 mg/kg) and Experimental group (administered with a pharmaceutical composition of Example 1 in an amount of 11.08g raw medicinal materials per kg body weight). Before experiments, rats were fed by intragastric administration for 2 weeks. The normal control group and the model group were fed the same volume of distilled water. On day 9, rats were trained in the pool of Morris 2 times per day. On day 14, rats were subjected to do Morris water Maze and jump platform testing.
# (§3) On experiment day, rats were intragastrically administered. 30 Minutes later, they were administered with scopolamine hydrobromide (HBr) by intraperitoneal injections (2 mg·kg^−1 for two days and then 1 mg·kg^−1 on day 3). 20 Minutes later, rats were subjected to Morris water Maze testing. […] Their swimming performance was tracked and recorded by a camera. The travel path, time spent and speed of movement of rats in 90 s were recorded by a computer automatically, and the swimming distance and escape latency for finding the platform were calculated. […] The first step down latency (SDL) and escape latency (the time required to escape from electric shock, EL) of rats were recorded.
# [3] = test system: Scop induced dysmnesia model rats; experiment: Jump platform test, scopolamine-induced dysmnesia model rats; format: in vivo, SD Male rats; details: intragastric 2 weeks, compositions 11.08 g raw medicinal materials/kg, Donepezil 1.17 mg/kg
# Protocol: as §1, §2, §3
smiles,measurement,setting,value
"COc1cc2c(cc1OC)C(=O)C(CC1CCN(Cc3ccccc3)CC1)C2 (stereo not drawn) [Positive control, Donepezil Hydrochloride]",Escape latency,[1]; model control 176.54,141.42 s
same,Swimming Distance (cm),[1]; model control 3646.54,2738.70 cm
same,Escape latency,[2]; model control 49.63,37.27 s
same,Distance (cm),[2]; model control 2173.42,1647.50 cm
same,SDL(s) (first step down latency),[3]; model control 16.04,28.67 s
same,EL(s) (escape latency from electric shock),[3]; model control 130.63,109.17 s
